The assay concerns the target VMAT2 (Homo sapiens (Human), UniProt Q05940). The assay can be described thus: VMAT2 radioligand binding assay: competition against 3H-dihydrotetrabenezine on human platelet homogenate (modified procedure). The settings on record: 10 nM 3H-dihydrotetrabenezine, 25° C., 90 minutes. How it is done:
Examples of techniques for determining the capability of a compound to inhibit VMAT2 are provided below. The procedure is adapted from that described previously (see, e.g., Near, (1986), Mol. Pharmacol. 30: 252-57; Teng, et al., J. Neurochem. 71, 258-65, 1998). Homogenates from human platelets or Sprague-Dawley rat forebrain were prepared by homogenization and then washed by centrifugation as described previously (see, e.g., Hoare et al., (2003) Peptides 24:1881-97). […] Following incubation at 25° C. for two hours, bound radioligand was collected by rapid filtration onto GF/B glass fiber filters using a Unifilter-96 Harvester (PerkinElmer). Filter plates were pre-treated for 10 minutes with 0.1% polyethylenimine, and following harvesting the filter plates were washed with 800 μl VMAT2 binding buffer. Bound radioligand was quantified by scintillation counting using a Topcount NXT (PerkinElmer).
Following incubation at 25° C. for 90 minutes, bound radioligand was collected by rapid filtration onto GF/B glass fiber filters using a Unifilter-96 Harvester (PerkinElmer). Filter plates were pre-treated with 0.1% polyethylenimine and allowed to dry overnight, and following harvesting the filter plates were washed with 800 μl VMAT2 binding buffer. Bound radioligand was quantified by scintillation counting using a Topcount NXT (PerkinElmer).

The Ki is a measure of affinity in units of concentration, obtained from inhibition or displacement. High values mean weaker binding, low ones tighter binding.

Some results are limits rather than exact numbers.

Sequence of VMAT2 (Q05940 whole entry): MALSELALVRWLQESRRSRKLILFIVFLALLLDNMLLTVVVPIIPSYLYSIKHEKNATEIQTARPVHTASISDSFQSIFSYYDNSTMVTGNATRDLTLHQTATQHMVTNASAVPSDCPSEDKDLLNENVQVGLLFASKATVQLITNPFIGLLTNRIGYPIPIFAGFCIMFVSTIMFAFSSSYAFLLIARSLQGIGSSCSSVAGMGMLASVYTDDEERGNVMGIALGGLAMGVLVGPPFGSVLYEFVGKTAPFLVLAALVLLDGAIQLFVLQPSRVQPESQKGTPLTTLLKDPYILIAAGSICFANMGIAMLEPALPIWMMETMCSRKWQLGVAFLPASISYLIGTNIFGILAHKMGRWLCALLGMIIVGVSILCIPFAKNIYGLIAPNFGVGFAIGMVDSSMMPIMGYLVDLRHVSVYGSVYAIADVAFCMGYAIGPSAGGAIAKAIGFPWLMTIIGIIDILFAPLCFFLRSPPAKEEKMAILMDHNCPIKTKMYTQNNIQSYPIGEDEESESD

`COc1cc2c(cc1OCCCF)CCN1C[C@@H](CC(C)C)N(C)C[C@@H]21` [Compound 6-2, (3R,11bR)-9-(3-fluoropropoxy)-10-methoxy-2-methyl-3-(2-methylpropyl)-1H,2H,3H,4H,6H,7H,11bH-piperazino[2,1-a]isoquinoline] yielded an inhibitory constant (Ki) of over 0.5 µM.

Turning to `COc1cc2c(cc1OCCCF)CCN1C[C@@H](CC(C)(C)C)N(C)C[C@@H]21` [Compound 12-1, (3R,11bR)-3-(2,2-dimethylpropyl)-9-(3-fluoropropoxy)-10-methoxy-2-methyl-1H,2H,3H,4H,6H,7H,11bH-piperazino[2,1-a]isoquinoline], the Ki fell in the range of 0.01 to 0.5 µM. In turn, `COc1cc2c(cc1OCCCF)CCN1C[C@@H](CC(C)C)N(C)C[C@H]21` [Compound 5-3, (3R,11bS)-9-(3-fluoropropoxy)-10-methoxy-2-methyl-3-(2-methylpropyl)-1H,2H,3H,4H,6H,7H,11bH-piperazino[2,1-a]isoquinoline] showed a Ki of 0.01 to 0.5 µM.

In turn, `C=CCOc1cc2c(cc1OC)[C@H]1CN(C)[C@H](CC(C)C)CN1CC2` [Compound 5-8, (3R,11bS)-10-methoxy-2-methyl-3-(2-methylpropyl)-9-(prop-2-en-1-yloxy)-1H,2H,3H,4H,6H,7H,11bH-piperazino[2,1-a]isoquinoline] displayed a Ki of under 0.01 µM. The figure for `COc1cc2c(cc1OCCF)CCN1C[C@@H](CC(C)C)N(C)C[C@@H]21` [Compound 6-3, (3R,11bR)-9-(2-fluoroethoxy)-10-methoxy-2-methyl-3-(2-methylpropyl)-1H,2H,3H,4H,6H,7H,11bH-piperazino[2,1-a]isoquinoline] is over 0.5 µM; for `COc1cc2c(cc1OC1CCC1)CCN1C[C@@H](CC(C)C)N(C)C[C@H]21` [Compound 5-16, (3R,11bS)-9-cyclobutoxy-10-methoxy-2-methyl-3-(2-methylpropyl)-1H,2H,3H,4H,6H,7H,11bH-piperazino[2,1-a]isoquinoline] it is under 0.01 µM. `COc1cc2c(cc1OC)[C@H]1CN(CC(C)C)[C@H](CC(C)C)CN1CC2` [Compound 2-3, (3R,11bS)-9,10-dimethoxy-2,3-bis(2-methylpropyl)-1H,2H,3H,4H,6H,7H,11bH-piperazino[2,1-a]isoquinoline]: the Ki was over 0.5 µM. For the molecule `COc1cc2c(cc1OCC1CC1)CCN1C[C@@H](CC(C)(C)C)N(C)C[C@H]21` [Compound 11-7, (3R,11bS)-9-(cyclopropylmethoxy)-3-(2,2-dimethylpropyl)-10-methoxy-2-methyl-1H,2H,3H,4H,6H,7H,11bH-piperazino[2,1-a]isoquinoline], the Ki was under 0.01 µM. The molecule `COc1cc2c(cc1OCCCC#N)CCN1C[C@@H](CC(C)C)N(C)C[C@H]21` [Compound 5-12, 4-{[(3R,11bS)-10-methoxy-2-methyl-3-(2-methylpropyl)-1H,2H,3H,4H,6H,7H,11bH-piperazino[2,1-a]isoquinolin-9-yl]oxy}butanenitrile] yielded a Ki of 0.01 to 0.5 µM. The figure for `COc1cc2c(cc1OC)[C@@H]1CN(C)[C@H](CC(C)(C)C)CN1CC2` [Compound 12-2, (3R,11bR)-3-(2,2-dimethylpropyl)-9,10-dimethoxy-2-methyl-1H,2H,3H,4H,6H,7H,11bH-piperazino[2,1-a]isoquinoline] is over 0.5 µM; for `COc1cc2c(cc1OC1CC1)CCN1C[C@@H](CC(C)C)N(C)C[C@@H]21` [Compound 6-4, (3R,11bR)-9-cyclopropoxy-10-methoxy-2-methyl-3-(2-methylpropyl)-1H,2H,3H,4H,6H,7H,11bH-piperazino[2,1-a]isoquinoline] it is over 0.5 µM; for `COc1cc2c(cc1OC)[C@H]1CN(C)[C@H](CC(C)C)CN1CC2` [Compound 2-2, (3R,11bS)-9,10-dimethoxy-2-methyl-3-(2-methylpropyl)-1H,2H,3H,4H,6H,7H,11bH-piperazino[2,1-a]isoquinoline] it is 0.01 to 0.5 µM.

As to `COc1cc2c(cc1OCCF)CCN1C[C@@H](CC(C)(C)C)N(C)C[C@H]21` [Compound 11-6, (3R,11bS)-3-(2,2-dimethylpropyl)-9-(2-fluoroethoxy)-10-methoxy-2-methyl-1H,2H,3H,4H,6H,7H,11bH-piperazino[2,1-a]isoquinoline], the inhibition constant Ki is under 0.01 µM. Turning to `COc1cc2c(cc1OC)[C@H]1CN(C)[C@H](CC(C)(C)C)CN1CC2` [Compound 11-2, (3R,11bS)-3-(2,2-dimethylpropyl)-9,10-dimethoxy-2-methyl-1H,2H,3H,4H,6H,7H,11bH-piperazino[2,1-a]isoquinoline], the Ki was under 0.01 µM. For `COc1cc2c(cc1OC(C)C)CCN1C[C@@H](CC(C)(C)C)N(C)C[C@H]21` [Compound 11-13, (3R,11bS)-3-(2,2-dimethylpropyl)-10-methoxy-2-methyl-9-(propan-2-yloxy)-1H,2H,3H,4H,6H,7H,11bH-piperazino[2,1-a]isoquinoline], the Ki is under 0.01 µM.

Regarding `COc1cc2c(cc1OCC(F)(F)F)CCN1C[C@@H](CC(C)C)N(C)C[C@H]21` [Compound 5-17, (3R,11bS)-10-methoxy-2-methyl-3-(2-methylpropyl)-9-(2,2,2-trifluoroethoxy)-1H,2H,3H,4H,6H,7H,11bH-piperazino[2,1-a]isoquinoline], the inhibitory constant (Ki) was under 0.01 µM. The molecule `COc1cc2c(cc1OCCCCF)CCN1C[C@@H](CC3CCC3)N(C)C[C@H]21` [Compound 8-8, (3R,11bS)-3-(cyclobutylmethyl)-9-(4-fluorobutoxy)-10-methoxy-2-methyl-1H,2H,3H,4H,6H,7H,11bH-piperazino[2,1-a]isoquinoline] showed an inhibition constant (Ki) of 0.01 to 0.5 µM.

For the molecule `COc1cc2c(cc1OCCF)CCN1C[C@@H](CC(C)C)N(C)C[C@H]21` [Compound 5-4, (3R,11bS)-9-(2-fluoroethoxy)-10-methoxy-2-methyl-3-(2-methylpropyl)-1H,2H,3H,4H,6H,7H,11bH-piperazino[2,1-a]isoquinoline], the Ki was in the range of 0.01 to 0.5 µM. Molecule `COCCOc1cc2c(cc1OC)[C@H]1CN(C)[C@H](CC(C)C)CN1CC2` [Compound 5-10, (3R,11bS)-10-methoxy-9-(2-methoxyethoxy)-2-methyl-3-(2-methylpropyl)-1H,2H,3H,4H,6H,7H,11bH-piperazino[2,1-a]isoquinoline] showed an inhibition constant (Ki) of 0.01 to 0.5 µM. Take `COc1cc2c(cc1OCCC(F)(F)F)CCN1C[C@@H](CC(C)C)N(C)C[C@H]21` [Compound 5-19, (3R,11bS)-10-methoxy-2-methyl-3-(2-methylpropyl)-9-(3,3,3-trifluoropropoxy)-1H,2H,3H,4H,6H,7H,11bH-piperazino[2,1-a]isoquinoline]: the Ki was under 0.01 µM. Regarding `CCCOc1cc2c(cc1OC)[C@H]1CN(C)[C@H](CC(C)C)CN1CC2` [Compound 5-6, (3R,11bS)-10-methoxy-2-methyl-3-(2-methylpropyl)-9-propoxy-1H,2H,3H,4H,6H,7H,11bH-piperazino[2,1-a]isoquinoline], the Ki is under 0.01 µM. `COCCOc1cc2c(cc1OC)[C@H]1CN(C)[C@H](CC(C)(C)C)CN1CC2` [Compound 11-11, (3R,11bS)-3-(2,2-dimethylpropyl)-10-methoxy-9-(2-methoxyethoxy)-2-methyl-1H,2H,3H,4H,6H,7H,11bH-piperazino[2,1-a]isoquinoline]: the Ki lay in the range of 0.01 to 0.5 µM. `CCN1C[C@@H]2c3cc(OC)c(OC)cc3CCN2C[C@H]1CC(C)C` [Compound 2-1, (3R,11bS)-2-ethyl-9,10-dimethoxy-3-(2-methylpropyl)-1H,2H,3H,4H,6H,7H,11bH-piperazino[2,1-a]isoquinoline] returned a Ki of 0.01 to 0.5 µM. Molecule `COc1cc2c(cc1OCCCCF)CCN1C[C@@H](CC(C)(C)C)N(C)C[C@H]21` [Compound 11-10, (3R,11bS)-3-(2,2-dimethylpropyl)-9-(4-fluorobutoxy)-10-methoxy-2-methyl-1H,2H,3H,4H,6H,7H,11bH-piperazino[2,1-a]isoquinoline] yielded a Ki of under 0.01 µM. The figure for `COc1cc2c(cc1OCCCC(F)(F)F)CCN1C[C@@H](CC(C)C)N(C)C[C@H]21` [Compound 5-13, (3R,11bS)-10-methoxy-2-methyl-3-(2-methylpropyl)-9-(4,4,4-trifluorobutoxy)-1H,2H,3H,4H,6H,7H,11bH-piperazino[2,1-a]isoquinoline] is under 0.01 µM; for `COc1cc2c(cc1OCC1CC1(F)F)CCN1C[C@@H](CC(C)(C)C)N(C)C[C@H]21` (stereo partly drawn) [Compound 11-4, (3R,11bS)-9-[(2,2-difluorocyclopropyl)methoxy]-3-(2,2-dimethylpropyl)-10-methoxy-2-methyl-1H,2H,3H,4H,6H,7H,11bH-piperazino[2,1-a]isoquinoline] it is under 0.01 µM. With `COc1cc2c(cc1OCCC(F)(F)F)CCN1C[C@@H](CC(C)(C)C)N(C)C[C@H]21` [Compound 11-5, (3R,11bS)-3-(2,2-dimethylpropyl)-10-methoxy-2-methyl-9-(3,3,3-trifluoropropoxy)-1H,2H,3H,4H,6H,7H,11bH-piperazino[2,1-a]isoquinoline] the figure was under 0.01 µM; with `COc1cc2c(cc1OCCCC(F)(F)F)CCN1C[C@@H](CC(C)(C)C)N(C)C[C@H]21` [Compound 11-9, (3R,11bS)-3-(2,2-dimethylpropyl)-10-methoxy-2-methyl-9-(4,4,4-trifluorobutoxy)-1H,2H,3H,4H,6H,7H,11bH-piperazino[2,1-a]isoquinoline], under 0.01 µM; with `COc1cc2c(cc1OCCCF)CCN1C[C@@H](CC(C)(C)C)N(C)C[C@H]21` [Compound 11-1, (3R,11bS)-3-(2,2-dimethylpropyl)-9-(3-fluoropropoxy)-10-methoxy-2-methyl-1H,2H,3H,4H,6H,7H,11bH-piperazino[2,1-a]isoquinoline], under 0.01 µM.

The values are drawn from patent US11040970B2, “VMAT2 inhibitor compounds and compositions thereof” (Neurocrine Biosciences, Inc., priority 2017, dated 2021).
